For one test, the system named is LAPC4 wild-type cells. As to the kind of experiment: PSA concentration after androstenedione stimulation. The conditions noted are these: 10 μM; androstenedione up to 10 nM, 24 h. In kind it is cell-based, human. The method, then:
(§1) Cells were seeded at 20,000 cells per well (LAPC4, LAPC4 AKR1C3) or 50,000 cells per well (22RV1) into 96-well plates in hormone-deprived media and left to settle for 24 h at 37°C and 5% CO2. […] The plates were returned to the incubator for 24 h, before the cell supernatant was removed and frozen for PSA analysis. Determination of total PSA concentration was carried out at LabPLUS, Auckland City Hospital, by immunoassay on a Cobas® e601 analyzer according to manufacturer’s instructions (Roche).
(§2) Next, PSA expression was determined in the CRPC cell lines that were sensitive to SN33638-mediated inhibition of testosterone (LAPC4 AKR1C3 and 22RV1 with LAPC4 wild-type cells acting as a negative control) as a biomarker of AR activity. […] Androstenedione stimulation promoted PSA production in all three cell lines, with the highest PSA levels observed in LAPC4 AKR1C3 cells.

Test [1] concerns LAPC4 AKR1C3 cells. The description is as above. The conditions noted are these: Homo sapiens, LAPC4, 24 h, read-out: Inhibition of PSA formation attributable to androstenedione stimulation. The class given is cell-based. The method, then: as §1, §2
In a further test the test system is 22RV1 cells. The test is described as above. The class given is cell-based. The following applies: Homo sapiens, 10 nM androstenedione, 24 h, read-out: Inhibition of PSA formation attributable to androstenedione stimulation. How it is done:
as §1, §2

Test [2] concerns MCF7 cells. Briefly: Cell proliferation (sulforhodamine B), 5 days. In kind it is cell-based, human. The method, then:
(§3) Cells were seeded into 96-well plates in hormone-deprived media at appropriate seeding densities (5000–20,000 cells per well) to reach approximately 70% confluency at the time of sampling and left to settle for 48 h at 37°C and 5% CO2. […] The plates were returned to the incubator for 5 days before fixing in 10% trichloroacetic acid (Merck Millipore) at 4°C for 1 h and staining with 0.4% sulforhodamine B (Sigma-Aldrich) in 1% acetic acid for 30 min in the dark at room temperature. Plates were washed in 1% acetic acid, dried, and incubated with unbuffered Tris base (10 mM; Serva) for 30 min on a plate shaker in the dark to solubilize the stain. The plates were read on a BioTek EL808 microplate reader at an absorbance of 490 nm with a reference wavelength of 450 nm.
(§4) Finally, we investigated whether inhibiting AKR1C3-dependent testosterone or 17β-estradiol production could prevent androstenedione- or estrone-stimulated cell proliferation in CRPC or ER-positive breast cancer cells.
Neither androstenedione nor estrone-stimulated cell proliferation in the HCT116 AKR1C3 and wild-type cell lines (data not shown).

The subject of test [3] is LAPC4 AKR1C3 cells. Briefly: Cell proliferation (sulforhodamine B), 5 days. The class given is cell-based, human. How it is done: as §3, §4
Test [4] concerns MCF7 cells. As to the kind of experiment: 17β-estradiol ELISA after estrone stimulation. The class given is cell-based, human. The conditions noted are these: Homo sapiens, MCF7; 10 μM; 28 nM estrone, 24 h; read-out: Inhibition of 17β-estradiol formation. How it is done: (§5) Cells were seeded into 96-well plates in hormone-deprived media at appropriate seeding densities [10,000–50,000 cells per well for all lines except HCC1500 (100,000 cells per well; 11β-PGF2α ELISA)] to reach approximately 70% confluency at the time of sampling and were left to settle for 24 h at 37°C and 5% CO2. Inhibitors were added to the plates at single or multiple concentrations for 1 h prior to administration of equimolar (28 nM) concentrations of PGD2 (11β-PGF2α ELISA), androstenedione (testosterone ELISA), or estrone (17β-estradiol ELISA). The plates were returned to the incubator for a further 24 h before cell supernatant was removed for analysis of 11β-PGF2α, testosterone, or 17β-estradiol by ELISA as per manufacturer’s instructions (11β-PGF2α and testosterone ELISA, Cayman Chemical Company; 17β-estradiol ELISA, Oxford Biomedical Research), and cells were fixed for sulforhodamine B analysis as described below. Each ELISA plate was read at a wavelength of 405 nm (11β-PGF2α and testosterone) or 650 nM (17β-estradiol) on a SpectraMax M2 microplate reader (Molecular Devices) and quantitated against a standard curve generated in hormone-deprived culture media. Cross-reactivity to PGD2, androstenedione, or estrone was accounted for by adding these to cell-free wells of each ELISA plate.
(§6) 17β-estradiol is predominantly produced from estrone by 17β-HSD1 in breast tissue in post-menopausal women ([44]). Although less catalytically efficient than 17β-HSD1, AKR1C3 can also convert estrone to 17β-estradiol ([10], [12], [14]), and therefore, may play a role in ER-positive breast cancer development. To investigate the activity of AKR1C3 in 17β-estradiol production, ER-positive breast cancer cells and known high and low AKR1C3-expressing cells were stimulated with estrone for 24 h prior to determination of 17β-estradiol levels by ELISA.
(In general: In an ELISA, binding on a coated surface is turned into a signal by an enzyme label.)

Another test relates to T47D cells. As to the kind of experiment: 17β-estradiol ELISA after estrone stimulation. In kind it is cell-based, human. The following applies: 10 μM; 28 nM estrone, 24 h. How it is done: as §5, §6
Another test has as its system T47D AKR1C3 cells. As to the kind of experiment: 17β-estradiol ELISA after estrone stimulation. In kind it is cell-based, human. The following applies: 10 μM; 28 nM estrone, 24 h. How it is done: as §5, §6
Another test concerns the target T1, AKR1C3 (Homo sapiens, UniProt P42330).
T1 sequence (P42330 1-323): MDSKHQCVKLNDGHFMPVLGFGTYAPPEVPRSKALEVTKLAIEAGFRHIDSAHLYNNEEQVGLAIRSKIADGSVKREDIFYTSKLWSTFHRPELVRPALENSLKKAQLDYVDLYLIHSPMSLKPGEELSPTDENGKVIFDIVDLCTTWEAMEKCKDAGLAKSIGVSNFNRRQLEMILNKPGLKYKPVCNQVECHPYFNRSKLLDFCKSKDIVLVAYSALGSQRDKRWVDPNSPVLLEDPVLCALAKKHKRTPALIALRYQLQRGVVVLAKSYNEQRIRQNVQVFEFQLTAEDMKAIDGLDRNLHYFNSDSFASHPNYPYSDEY
As to the kind of experiment: 11β-PGF2α formation from PGD2 by ELISA in the cell line panel. The class given is cell-based. The conditions noted are these: 10 μM; all cell lines that expressed AKR1C3; 28 nM PGD2, 24 h. The method, then: as §5, with “Cross-reactivity to PGD2, androstenedione, or estrone was accounted for by adding these to cell-free wells of each ELISA plate.” left out
The PGD2 11-ketoreductase activity of AKR1C3 was determined by stimulating the cell line panel with PGD2 for 24 h, then detecting 11β-PGF2α levels by ELISA.

Where only a bound is given, the exact number is not on record here.

As to `CC1CCCCN1S(=O)(=O)c1ccc(N2CCCC2=O)cc1` (stereo not drawn) [SN33638], the “Effect on PSA formation” value in the test with LAPC4 wild-type cells was “no significant effect”. For the same compound, the inhibition at 10 µM in the test on LAPC4 AKR1C3 cells [1] (1 nM androstenedione) stood at 90.8%; in the test on LAPC4 AKR1C3 cells [1] (10 nM androstenedione), 57.4%; in the test on 22RV1 cells, 44.9%; with MCF7 cells [2] (Homo sapiens, MCF7, 120 h, 10 nM estrone, read-out: Inhibition of estrone-stimulated cell proliferation), 14.9%; with LAPC4 AKR1C3 cells [3] (Homo sapiens, LAPC4, 120 h, 0.1 nM androstenedione, read-out: Inhibition of androstenedione-stimulated cell proliferation), 101%; in the test with MCF7 cells [4], 16%. In addition, the “Reduction of unstimulated cell proliferation” value with MCF7 cells [2] (10 μM) is 7.3%. In the test with LAPC4 AKR1C3 cells [3] (10 μM, 1 nM androstenedione, non-significant), the “Reduction in androstenedione-stimulated cell proliferation” value worked out at 45.9%. The “Effect on 17β-estradiol levels” value in the test on T47D cells and with T47D AKR1C3 cells was “no effect” in each case. Also, the “Reduction of 11β-PGF2α levels” value on AKR1C3 is on record as at least 80%.
